Measured values from patent US20240239814A1, “Complexes Of CU(I) As Antitumor Agents” (priority 2021, published 2024).
Like-named read-outs stand apart in the source and are kept apart here. Marks after values point to notes of the source that are not given here.

Assays:
[1] = test system: human cervical carcinoma cells A431; assay: MTT cytotoxicity assay, 72 h, A431; assay type: cell-based; conditions: MTT test, mean ± SD
Excerpt: (§1) Human breast (MCF-7), lung (H157), pancreatic (PSN-1) and colon (HCT-15 and LoVo) carcinoma cell lines were obtained from the American Type Culture Collection (ATCC, Rockville, MD). A431 are human cervical carcinoma cells kindly provided by Prof. F. Zunino (Molecular Pharmacology Unit, Experimental Oncology and Molecular Medicine, Istituto Nazionale dei Tumori, Milan, Italy). […] G. Marverti (Dept. of Biomedical Science, University of Modena, Italy).
(§2) Briefly, depending upon the growth characteristics of the cell line, 3-8×10^3 cells well^−1, were seeded in 96-well microplates in growth medium (100 μL) and then incubated at 37° C. in a 5% carbon dioxide atmosphere. After 24 h, the medium was removed and replaced with a fresh one containing the compound to be studied, at the appropriate concentration, dissolved in 0.9% sodium chloride solution just before use. Triplicate cultures were established for each treatment. After 72 h, each well was treated with 10 μL of a 5 mg mL^−1 MTT saline solution and, after 5 h of incubation, 100 μL of a sodium dodecylsulfate (SDS) solution in 0.01 M HCl were added. After an overnight incubation, the inhibition of cell growth induced by the tested complexes was determined by measuring the absorbance of each well at 570 nm using a Bio-Rad 680 microplate reader. Mean absorbance for each drug dose was expressed as percentage of the control and plotted vs. drug concentration. Dose-response curves were fitted and IC50 values were calculated with four parameter logistic model (4PL).
(§3) The cytotoxicity was evaluated by means of the MTT test for 72 h treatment with increasing concentrations of the tested compounds.
(§4) Cytotoxic activity was examined against a panel of human tumor cell lines. […] The growth inhibitory effect was evaluated by means of MTT test. Cells (5-8×10^3 mL^−1, depending on the growth characteristics of the cell line) were treated for 72 h with increasing concentrations of tested compounds. […] SD=standard deviation, -=not detected.

[2] = test system: human colon carcinoma cells HCT-15; assay: MTT cytotoxicity assay, 72 h, HCT-15; assay type: cell-based; conditions: MTT test, mean ± SD
Excerpt: as §1, §2, §3, §4

[3] = test system: human lung carcinoma cells H157; assay: MTT cytotoxicity assay, 72 h, H157; assay type: cell-based; conditions: MTT test, mean ± SD
Excerpt: as §1, §2, §3, §4

[4] = test system: human pancreatic carcinoma cells PSN-1; assay: MTT cytotoxicity assay, 72 h, PSN-1; assay type: cell-based; conditions: MTT test, mean ± SD
Excerpt: as §1, §2, §3, §4

[5] = test system: human ovarian cancer cells 2008; assay: MTT cytotoxicity assay, 72 h, 2008
Excerpt: as §1, §2, §3, §4, §3, §4

[6] = test system: human breast carcinoma cells MCF-7; assay: MTT cytotoxicity assay, 72 h, MCF-7; assay type: cell-based; conditions: MTT test, mean ± SD
Excerpt: as §1, §2, §3, §4

[7] = test system: human colon cancer cells LoVo; assay: MTT cytotoxicity assay, 72 h, LoVo; assay type: cell-based; conditions: MTT test, mean ± SD
Description: Triplicate cultures were established for each treatment.
(§5) . A LoVo cell line retaining a multidrug resistance phenotype was also considered (LoVo MDR). Cross-resistance profiles were evaluated by means of the resistance factor (RF), which is defined as the ratio between the IC50 value for the resistant cells and that arising from the sensitive cells (Table 3).
Cytotoxicity was assessed by MTT test. […]. Resistant Factor (in brackets) is defined as IC50 resistant/parent line.

[8] = test system: LoVo-OXP cells; assay: MTT cytotoxicity assay, 72 h, LoVo-OXP (oxaliplatin resistant); assay type: cell-based, human; conditions: MTT test, mean ± SD
Excerpt: as §1, §2
as §5, with “A” for “. A”
Cells (5×10^3 mL-1) were treated for 72 h with increasing concentrations of tested compounds. Cytotoxicity was assessed by MTT test. […] Resistant Factor (in brackets) is defined as IC50 resistant/parent line.

[9] = test system: LoVo MDR cells; assay: MTT cytotoxicity assay, 72 h, LoVo MDR (multidrug resistant); assay type: cell-based, human; conditions: MTT test, mean ± SD
Excerpt: as §1, §2
as §5, with “A” for “. A”
Cells (5×10^3 mL-1) were treated for 72 h with increasing concentrations of tested compounds. Cytotoxicity was assessed by MTT test. […] Resistant Factor (in brackets) is defined as IC50 resistant/parent line. […]

[10] = test system: panel of human tumor cell lines; assay: Average cytotoxic activity over the cell panel (MTT) compared with reference drugs; conditions: on average over the cell panel
Description: as §2, §3
Cytotoxic activity was examined against a panel of human tumor cell lines. […] The growth inhibitory effect was evaluated by means of MTT test. […] SD=standard deviation, -=not detected.

[11] = test system: murine Lewis lung carcinoma (LLC); assay: In vivo anticancer activity toward Lewis lung carcinoma; set-up: species or system C57BL mice; conditions: for Average tumor weight (mean ± SD, g) / Inhibition of tumor growth (%): daily i.p. from day 9, measured at day 15, 6: 5 mg kg^−1, 9: 3 mg kg^−1, cisplatin: 1.5 mg kg^−1; for Inhibition of tumor growth (%): referred to control animals
Description: (§6) The mice were purchased from Charles River, Italy, housed in steel cages under controlled environmental conditions (constant temperature, humidity, and 12 h dark/light cycle), and alimented with commercial standard feed and tap water ad libitum. Animals were observed daily, and body weight and food intake recorded. The Lewis lung carcinoma (LLC) cell line was purchased from ECACC, UK. The LLC cell line was maintained in D-MEM (Euroclone) supplemented with 10% heat-inactivated FBS (Euroclone), 10 mM L-glutamine, 100 U mL^−1 penicillin, and 100 μg mL^−1 streptomycin in a 5% CO2 air incubator at 37° C. […] At day 15, animals were sacrificed, the legs were amputated at the proximal end of the femur, and the inhibition of tumor growth was determined according to the difference in weight of the tumor-bearing leg and the healthy leg of the animals expressed as % referred to the control animals. Body weight was measured every two days and was taken as a parameter for systemic toxicity. All the values are the means±S.D. of not less than three measurements. Multiple comparisons were made by Tukey-Kramer test (** p<0.01; * p or °p<0.05).
(§7) For the assessment of the adverse side effects, changes in body weights of tumor-bearing mice were monitored daily (FIG. 1).
Starting from day 9 after tumor implantation, tested compounds were daily administered i.p. At day 15, mice were sacrified and tumor growth was detected as described above.

[12] = Description: as §6, §7
[13] = read-out: IC50 2008, MTT test, mean ± SD, Table 1
[14] = read-out: IC50 2008, MTT test, mean ± SD, Table 2

Row | Molecule | IC50 [1] [nM] | IC50 [2] [nM] | IC50 [3] [nM] | IC50 [4] [nM] | IC50 [5, 13] [nM] | IC50 [6] [nM] | IC50 [7] [nM] | IC50 [8] [nM] | IC50 [9] [nM] | IC50 [5, 14] [nM] | further results
1 | F[B-](F)(F)F.O=Cc1ccccc1P(c1ccccc1)c1ccccc1.O=Cc1ccccc1P(c1ccccc1)c1ccccc1.[Cu+] [Compound 9, Bis[2-(diphenylphosphanyl)benzaldehyde]copper(I) tetrafluoroborate] | 4700 ± 600 | 800 ± 200 | 1500 ± 200 | 1100 ± 500 | 600 ± 100 | 1300 ± 300 | 600 ± 200 | 1100 ± 600 | 800 ± 500 |  | average cytotoxic activity relative to cisplatin ([10]; times more effective than cisplatin): 4.8 times; average cytotoxic activity relative to oxaliplatin ([10]; times more effective than oxaliplatin): 3.8 times; reduction of the tumor mass ([11]; 3 mg kg^−1 daily i.p., day 15): 83%; Average tumor weight (mean ± SD, g) [11]: 0.098 ± 0.06** g; Inhibition of tumor growth (%) [11]: 83.4%; tolerability compared with cisplatin ([12]; doses 5 and 3 mg kg^−1 represent ⅓ of the MTD): better tolerated than cisplatin
2 | F[B-](F)(F)F.O=C(O)c1ccccc1P(c1ccccc1)c1ccccc1.O=C(O)c1ccccc1P(c1ccccc1)c1ccccc1.[Cu+] [Compound 10, Bis[2-(diphenylphosphanyl)benzoic acid]copper(I) tetrafluoroborate] | 3800 ± 1100 | 1800 ± 600 | 900 ± 100 | 600 ± 10 | 300 ± 100 | 1100 ± 200 | 1500 ± 400 | 90 ± 30 | 900 ± 400 |  | 
3 | COc1ccccc1P(c1ccccc1)c1ccccc1.COc1ccccc1P(c1ccccc1)c1ccccc1.F[B-](F)(F)F.[Cu+] [Compound 11, Bis[diphenyl(2-methoxyphenyl)phosphine] copper(I)tetrafluoroborate] |  |  |  |  |  |  |  |  |  | 400 ± 300 | cytotoxicity against human ovarian cancer cells compared with cisplatin and oxaliplatin ([5]; 2008 cells, MTT): the most cytotoxic derivative
4 | F[B-](F)(F)F.Oc1ccccc1P(c1ccccc1)c1ccccc1.Oc1ccccc1P(c1ccccc1)c1ccccc1.[Cu+] [Compound 12, Bis[diphenyl(2-hydroxyphenyl)phosphine] copper(I)tetrafluoroborate] |  |  |  |  |  |  |  |  |  | 1100 ± 300 | 
5 | COCOc1ccccc1P(c1ccccc1)c1ccccc1.COCOc1ccccc1P(c1ccccc1)c1ccccc1.F[B-](F)(F)F.[Cu+] [Compound 13, Bis[diphenyl(2-(methoxymethoxy)phenyl)phosphine] copper(I)tetrafluoroborate] |  |  |  |  |  |  |  |  |  | 1500 ± 400 | 
6 | F[B-](F)(F)F.O=S(=O)(O)c1ccccc1P(c1ccccc1)c1ccccc1.O=S(=O)(O)c1ccccc1P(c1ccccc1)c1ccccc1.[Cu+] [Compound 14, Bis[2-(diphenylphosphino]benzenesulfonic acid]copper(I) tetrafluoroborate] |  |  |  |  |  |  |  |  |  | 800 ± 200 | 
7 | N.N.[Cl][Pt][Cl] [cisplatin, cis-diamminedichloroplatinum(II), reference compound] | 2100 ± 800 | 15300 ± 2600 | 2100 ± 900 | 18300 ± 3100 | 2200 ± 500 | 7600 ± 200 |  |  |  | 2200 ± 500 | Average tumor weight (mean ± SD, g) [11]: 0.119 ± 0.10** g; Inhibition of tumor growth (%) [11]: 79.8%; body weight loss ([12]; mouse, in vivo, ip): > 20%
8 | COc1cccc2c1C(=O)c1c(O)c3c(c(O)c1C2=O)C[C@@](O)(C(=O)CO)C[C@@H]3O[C@H]1C[C@H](N)[C@H](O)[C@H](C)O1 [doxorubicin, reference compound] |  |  |  |  |  |  |  |  |  |  | IC50 ([7]; Homo sapiens, LoVo): 1100 ± 500 nM; IC50 ([9]; Homo sapiens, LoVo): 19400 ± 2200 nM
9 | O=C1[O][Pt]2([NH][C@@H]3CCCC[C@H]3[NH]2)[O]C1=O [oxaliplatin, cyclohexane-1,2-diamineethanedioatoplatinum(II), reference compound] | 3700 ± 1000 | 1300 ± 300 | 11800 ± 3200 | 16100 ± 2500 | 1700 ± 1000 | 3400 ± 1200 | 3100 ± 300 | 17500 ± 1800 | 1400 ± 800 | 1700 ± 1000 | 
10 | Bis[tris(4- fluorophenyl)phosphine] copper(I) nitrate [Compound 4] | 800 ± 600 | 1100 ± 500 | 900 ± 100 | 6200 ± 900 | 1900 ± 500 | 1400 ± 300 | 900 ± 300 | 700 ± 100 | 1000 ± 100 |  | 
11 | Bis[tris(4- methoxyphenyl)phosphine] copper(I) nitrate [Compound 3] | 3100 ± 1100 | 300 ± 200 | 1200 ± 10 |  | 500 ± 100 | 1300 ± 400 |  |  | 900 ± 200 |  | 
12 | Bis[tris(4- methylphenyl)phosphine] copper(I) nitrate [Compound 2] | 3000 ± 1400 | 500 ± 200 | 3400 ± 200 | 300 ± 80 | 1300 ± 300 | 3100 ± 600 | 1400 ± 100 | 1300 ± 500 | 900 ± 600 |  | 
13 | Bis[tris(N-EthylpiperazineN′- methyl)phosphine]copper(I) tetrafluoroborate [Compound 6] | 7700 ± 500 | 2500 ± 100 | 3800 ± 300 | 13300 ± 3200 | 14500 ± 1200 | 3100 ± 900 | 700 ± 300 | 1300 ± 500 | 1200 ± 900 |  | Average tumor weight (mean ± SD, g) [11]: 0.142 ± 0.09** g; Inhibition of tumor growth (%) [11]: 75.9%
14 | Bis[tris(N-methylpiperazineN′- methyl)phosphine]copper(I) tetrafluoroborate [Compound 5] |  | 8000 ± 2600 | 4300 ± 1200 | 7300 ± 1400 | 5200 ± 1700 |  |  |  |  |  | 
15 | Bis[tris(morpholineN- methyl)phosphine]copper(I) tetrafluoroborate [Compound 7] | 15000 ± 2200 | 6400 ± 500 | 8400 ± 1800 | 12300 ± 1500 | 9200 ± 1000 | 6100 ± 1500 | 600 ± 300 | 400 ± 200 | 400 ± 300 |  | 
16 | Bis[tris(phenylphosphine)] copper(I) nitrate [Compound 1] | 200 ± 10 | 1800 ± 800 | 1600 ± 100 | 4500 ± 1800 | 2200 ± 100 | 1900 ± 700 | 400 ± 30 | 300 ± 100 | 500 ± 200 |  | 
17 | Bis[tris(thiomorpholineN- methyl)phosphine]copper(I) tetrafluoroborate [Compound 8] |  | 10200 ± 100 | 5300 ± 1200 | 7700 ± 1300 | 11900 ± 100 |  |  |  |  |  | 
